The source of these data is patent US20090214507A1, “METHOD OF TREATING PREVENTING, INHIBITING OR REDUCING DAMAGE TO CARDIAC TISSUE” (RegeneRx Biopharmaceuticals, Inc., priority 2004, published 2009).

Test [1] has as its system ILK / Akt. As to the kind of experiment: ILK localization, expression and activation (immunocytochemistry, Western). Format: cell-based. How it is done: Because recruitment of ILK to the focal adhesion complex is important for its activation, the effects of thymosin β4 on ILK localization and expression were assayed. […] Because thymosin β4 sequesters the pool of G-actin monomers, the effects on ILK activation were dependent on thymosin β4's role in regulating the balance between polymerized F-actin and monomeric G-actin were tested.

Test [2] has as its target T1, PINCH (Mus musculus, UniProt Q99JW4).
T1 construct: made in house; host or cells: T7 phage amplified in E. coli BLT5615
The test can be described thus: phage display ELISA and coimmunoprecipitation with PINCH. Format: binding. To be noted: ELISA; coimmunoprecipitation in transfected cultured cells. The text has this: (§1) To investigate the potential mechanisms through which thymosin β4 might be influencing cell migration and survival events, thymosin β4 interacting proteins were searched. The amino-terminus of thymosin β4 was fused with affi-gel beads resulting in exposure of the carboxy-terminus that allowed identification of previously unknown interacting proteins but prohibited association with actin. An E9.5-12.5 mouse heart T7 phage cDNA library was synthesized and screened by phage display and thymosin β4-interacting clones were enriched and confirmed by ELISA. […] PINCH and integrin linked kinase (ILK) interact directly with one another and indirectly with the actin cytoskeleton as part of a larger complex involved in cell-extracellular matrix interactions known as the focal adhesion complex. PINCH and ILK are required for cell motility and for cell survival, in part by promoting phosphorylation of the serine-threonine kinase Akt/protein kinase B, a central kinase in survival and growth signaling pathways. […] The PINCH interaction with thymosin β4 mapped to the fourth and fifth LIM domains of PINCH while the amino terminal ankryin domain of ILK was sufficient for thymosin β4 interaction.
300 ul of Affi-Gel 15 (Bio-Rad Laboratories) was coupled with 12 ug of synthesized thymosin β4 protein (RegeneRx) following the manufacturers manual, likely via amino terminal lysine residues. […]

In test [3] the target is T2, integrin linked kinase (ILK) (Homo sapiens, UniProt Q13418).
T2 construct: expressed in transfected cells; host or cells: Cos and 10T1/2 cells
T2 sequence (Q13418 1-452): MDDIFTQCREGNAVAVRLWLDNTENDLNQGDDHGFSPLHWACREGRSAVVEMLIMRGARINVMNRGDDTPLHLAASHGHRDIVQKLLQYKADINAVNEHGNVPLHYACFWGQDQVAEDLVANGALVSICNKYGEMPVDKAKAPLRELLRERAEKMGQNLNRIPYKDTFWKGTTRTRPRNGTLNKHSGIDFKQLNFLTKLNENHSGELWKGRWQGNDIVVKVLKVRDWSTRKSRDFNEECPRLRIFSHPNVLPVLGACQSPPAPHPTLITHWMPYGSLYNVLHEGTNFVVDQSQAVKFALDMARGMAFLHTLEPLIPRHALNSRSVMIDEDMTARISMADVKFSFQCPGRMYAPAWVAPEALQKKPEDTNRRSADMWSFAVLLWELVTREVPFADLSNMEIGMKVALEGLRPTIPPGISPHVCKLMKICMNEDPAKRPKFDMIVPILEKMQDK
The test can be described thus: coimmunoprecipitation with ILK. The class given is binding. The following applies: coimmunoprecipitation in transfected cultured cells.
Excerpt: as §1
Cos and 10 T1/2 cells were transfected with thymosin β4, PINCH and/or ILK and lysates precipitated with antibodies to each as previously described. […]

Test [4] concerns ILK / Akt. As to the kind of experiment: western blot of heart lysates after coronary ligation. The class given is in vivo, mouse. How it is done:
Because thymosin β4 upregulates ILK activity and Akt phosphorylation in cultured cells, the effects on these kinases in vivo were tested. […] Total Akt protein was not increased.
Myocardial infarction was produced in fifty-eight male C57BL/6J mice at 16 weeks of age (25-30 g) by ligation of the left anterior descending coronary artery as previously described. Twenty-nine of the ligated mice received thymosin β4 treatment immediately following ligation and the remaining twenty-nine received PBS injections. Treatment was given intracardiac with thymosin β4 (200 ng in 10 ul collagen) or with 10 ul of collagen; intraperitoneally with thymosin β4 (150 μg in 300 μl PBS) or with […]; or by both intracardiac and intraperitoneal injections. Intraperitoneal injections were given every three days until mice were sacrificed. Doses were based on previous studies of thymosin β4 biodistribution. Hearts were removed, weighed and fixed for histologic sectioning. Additional mice were operated on in a similar fashion for studies 0.5, 1, 3, 6 and 11 days after ligation.

T1 sequence (Q99JW4 whole entry): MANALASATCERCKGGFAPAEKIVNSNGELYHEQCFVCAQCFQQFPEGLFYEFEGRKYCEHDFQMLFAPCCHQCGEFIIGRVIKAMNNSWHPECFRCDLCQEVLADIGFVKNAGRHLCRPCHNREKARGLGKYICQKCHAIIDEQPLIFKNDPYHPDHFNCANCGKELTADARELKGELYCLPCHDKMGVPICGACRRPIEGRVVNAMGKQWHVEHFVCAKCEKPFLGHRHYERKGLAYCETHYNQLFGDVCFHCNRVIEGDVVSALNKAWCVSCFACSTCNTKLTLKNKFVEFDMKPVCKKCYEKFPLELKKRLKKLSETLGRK

Take thymosin β4: in test [1] (C2C12 cells), the “ILK protein levels (Western analysis)” value is listed as “modest increase” and the “total Akt protein” value is on record as “unchanged”. Moreover, in test [1] (C2C12 cells, phospho-specific antibody), the “phosphorylation of Akt (serine 473)” value is “increased phosphorylation”. For the same substance, the “ILK detection by immunocytochemistry” value in test [1] (embryonic heart explants or C2C12 myoblasts, 10 ng/100 ul synthetic protein or expressing plasmid) is on record as “markedly enhanced around the cell edges”. For the same substance, in test [2], the “interaction with PINCH” value is recorded as “interacted with thymosin β4 in the absence of actin”. Moreover, the “interaction with ILK” value in test [3] is on record as “weaker than with PINCH”. Further, in test [4], the “total Akt protein” value is on record as “not increased”. Besides, the “level of ILK protein in heart lysates” value in test [4] (compared with PBS treated mice) is recorded as “increased”. Also, the “amount of phosphorylated Akt-5473” value in test [4] (phospho-specific antibodies) was “elevation”.
